According to paper PMC12136037, “Type II kinase inhibitors that target Parkinson’s disease–associated LRRK2” (Science Advances, 2025):

Legend:
Test in all cases: DSF 100 kinase selectivity screen;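 further: compound tested at 20 µM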
Format in all cases: binding
[1] = molecular target: T1, ~100 representative kinases (Homo sapiens, UniProt Q00532); conditions: Protein CDKL1; average of three replicates
T1 construct: Recombinant protein kinase domains with a concentration of 2 μM
Method in brief: (§1)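 Each kinase domain, at 2 μM, is mixed with 20 μM test compound and SYPRO Orange in Hepes (20 mM, pH 7.5) with 500 mM NaCl. Temperature is then raised at 3°C/min and fluorescence-monitored unfolding yields the melting temperature change, ΔTm in degrees Celsius.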

[2] = molecular target: T2, ~100 representative kinases (Homo sapiens, UniProt P17948); conditions: protein FLT1; average of three replicates
T2 construct: Recombinant protein kinase domains with a concentration of 2 μM
Method in brief: as §1

[3] = molecular target: T3, ~100 representative kinases (Homo sapiens, UniProt P22830); conditions: protein FECH; average of three replicates
T3 construct: Recombinant protein kinase domains with a concentration of 2 μM
T3 sequence (P22830 55-423): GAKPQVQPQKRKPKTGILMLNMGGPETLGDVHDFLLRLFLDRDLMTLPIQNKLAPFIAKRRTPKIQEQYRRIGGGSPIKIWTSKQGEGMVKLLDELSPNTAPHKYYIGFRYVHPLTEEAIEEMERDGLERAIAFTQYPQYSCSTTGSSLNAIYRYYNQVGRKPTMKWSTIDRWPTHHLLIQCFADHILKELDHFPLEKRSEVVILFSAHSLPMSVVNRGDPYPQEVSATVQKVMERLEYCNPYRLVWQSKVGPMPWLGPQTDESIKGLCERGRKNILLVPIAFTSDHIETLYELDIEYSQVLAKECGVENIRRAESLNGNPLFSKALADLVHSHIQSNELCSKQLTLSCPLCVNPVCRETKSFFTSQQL
Method in brief: as §1

[4] = molecular target: T4, ~100 representative kinases (Homo sapiens, UniProt Q00536); conditions: protein PCTK1; average of three replicates
T4 construct: Recombinant protein kinase domains with a concentration of 2 μM
Method in brief: as §1

[5] = molecular target: T5, ~100 representative kinases (Homo sapiens, UniProt P51955); conditions: protein NEK2; average of three replicates
T5 construct: Recombinant protein kinase domains with a concentration of 2 μM
T5 sequence (P51955 1-445): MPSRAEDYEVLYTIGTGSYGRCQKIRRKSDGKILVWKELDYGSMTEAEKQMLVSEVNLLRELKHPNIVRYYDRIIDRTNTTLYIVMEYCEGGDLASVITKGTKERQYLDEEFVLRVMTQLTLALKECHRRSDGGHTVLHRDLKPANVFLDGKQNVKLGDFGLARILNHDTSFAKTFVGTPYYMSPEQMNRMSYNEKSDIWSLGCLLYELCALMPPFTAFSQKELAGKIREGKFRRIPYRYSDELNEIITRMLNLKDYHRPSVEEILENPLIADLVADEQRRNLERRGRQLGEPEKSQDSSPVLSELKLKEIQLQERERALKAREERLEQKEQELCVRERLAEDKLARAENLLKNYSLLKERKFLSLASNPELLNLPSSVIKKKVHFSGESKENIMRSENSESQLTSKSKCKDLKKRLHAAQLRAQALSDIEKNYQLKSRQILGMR
Method in brief: as §1

[6] = molecular target: T6, ~100 representative kinases (Homo sapiens, UniProt Q8TDX7); conditions: protein NEK7; average of three replicates
T6 construct: Recombinant protein kinase domains with a concentration of 2 μM
Method in brief: as §1

[7] = molecular target: T7, ~100 representative kinases (Homo sapiens, UniProt Q9Y6E0); conditions: protein MST3; average of three replicates
T7 construct: Recombinant protein kinase domains with a concentration of 2 μM
Method in brief: as §1

[8] = molecular target: T8, ~100 representative kinases (Homo sapiens, UniProt Q13043); conditions: Protein STK4; DSF; average of three replicates
T8 construct: Recombinant protein kinase domains with a concentration of 2 μM
T8 sequence (Q13043 1-487): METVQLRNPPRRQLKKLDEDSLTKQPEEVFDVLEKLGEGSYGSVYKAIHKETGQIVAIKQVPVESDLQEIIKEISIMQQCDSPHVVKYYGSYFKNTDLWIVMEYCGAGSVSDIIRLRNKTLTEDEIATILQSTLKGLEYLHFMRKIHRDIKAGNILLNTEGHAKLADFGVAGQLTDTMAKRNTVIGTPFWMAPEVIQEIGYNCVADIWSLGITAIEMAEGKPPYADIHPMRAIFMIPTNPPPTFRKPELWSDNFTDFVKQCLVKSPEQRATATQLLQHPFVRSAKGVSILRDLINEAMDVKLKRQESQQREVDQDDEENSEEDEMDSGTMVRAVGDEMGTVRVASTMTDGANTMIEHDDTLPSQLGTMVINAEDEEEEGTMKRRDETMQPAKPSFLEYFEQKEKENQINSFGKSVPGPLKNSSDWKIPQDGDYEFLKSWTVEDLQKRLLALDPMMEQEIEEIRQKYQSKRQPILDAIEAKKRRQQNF
Method in brief: as §1

[9] = molecular target: T9, ~100 representative kinases (Homo sapiens, UniProt Q13557); conditions: Protein CAMK2D; average of three replicates
T9 construct: Recombinant protein kinase domains with a concentration of 2 μM
Method in brief: as §1

[10] = molecular target: T10, ~100 representative kinases (Homo sapiens, UniProt P51813); conditions: Protein BMX; average of three replicates
T10 construct: Recombinant protein kinase domains with a concentration of 2 μM
T10 sequence (P51813 1-675): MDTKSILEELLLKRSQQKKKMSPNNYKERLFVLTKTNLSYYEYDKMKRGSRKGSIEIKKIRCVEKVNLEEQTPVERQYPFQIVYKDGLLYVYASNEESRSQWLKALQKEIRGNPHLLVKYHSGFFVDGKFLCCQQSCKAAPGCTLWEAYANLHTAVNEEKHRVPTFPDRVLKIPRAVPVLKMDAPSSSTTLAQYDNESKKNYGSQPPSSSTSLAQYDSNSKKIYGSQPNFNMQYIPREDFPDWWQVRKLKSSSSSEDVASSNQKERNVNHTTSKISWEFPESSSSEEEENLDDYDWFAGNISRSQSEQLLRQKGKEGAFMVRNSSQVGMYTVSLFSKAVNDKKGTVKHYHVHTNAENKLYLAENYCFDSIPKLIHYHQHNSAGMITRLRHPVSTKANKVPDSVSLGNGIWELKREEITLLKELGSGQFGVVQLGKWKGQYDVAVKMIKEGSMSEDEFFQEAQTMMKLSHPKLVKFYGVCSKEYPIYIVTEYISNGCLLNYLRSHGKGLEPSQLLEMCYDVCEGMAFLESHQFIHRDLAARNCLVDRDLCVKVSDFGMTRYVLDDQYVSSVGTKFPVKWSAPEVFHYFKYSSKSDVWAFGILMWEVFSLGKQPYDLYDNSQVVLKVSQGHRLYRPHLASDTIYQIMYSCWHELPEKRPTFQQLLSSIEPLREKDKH
Method in brief: as §1

[11] = molecular target: T11, ~100 representative kinases (Homo sapiens, UniProt Q9P289); conditions: protein MST4; average of three replicates
T11 construct: Recombinant protein kinase domains with a concentration of 2 μM
Method in brief: as §1

T9 sequence (Q13557 whole entry, the tested form may be a part): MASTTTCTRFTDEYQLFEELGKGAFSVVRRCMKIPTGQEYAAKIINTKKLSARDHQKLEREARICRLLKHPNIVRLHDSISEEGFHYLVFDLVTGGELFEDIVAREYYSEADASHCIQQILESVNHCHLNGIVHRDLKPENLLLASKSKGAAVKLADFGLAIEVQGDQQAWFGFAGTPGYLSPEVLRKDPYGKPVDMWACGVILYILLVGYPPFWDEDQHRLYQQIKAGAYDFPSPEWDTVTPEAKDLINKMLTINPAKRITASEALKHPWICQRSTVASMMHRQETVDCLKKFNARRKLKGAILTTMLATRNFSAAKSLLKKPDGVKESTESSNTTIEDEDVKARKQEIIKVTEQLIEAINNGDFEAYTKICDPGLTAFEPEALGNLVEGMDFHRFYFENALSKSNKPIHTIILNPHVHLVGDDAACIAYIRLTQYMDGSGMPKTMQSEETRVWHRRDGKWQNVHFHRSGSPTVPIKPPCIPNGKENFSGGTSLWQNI
T11 sequence (Q9P289 whole entry, the tested form may be a part): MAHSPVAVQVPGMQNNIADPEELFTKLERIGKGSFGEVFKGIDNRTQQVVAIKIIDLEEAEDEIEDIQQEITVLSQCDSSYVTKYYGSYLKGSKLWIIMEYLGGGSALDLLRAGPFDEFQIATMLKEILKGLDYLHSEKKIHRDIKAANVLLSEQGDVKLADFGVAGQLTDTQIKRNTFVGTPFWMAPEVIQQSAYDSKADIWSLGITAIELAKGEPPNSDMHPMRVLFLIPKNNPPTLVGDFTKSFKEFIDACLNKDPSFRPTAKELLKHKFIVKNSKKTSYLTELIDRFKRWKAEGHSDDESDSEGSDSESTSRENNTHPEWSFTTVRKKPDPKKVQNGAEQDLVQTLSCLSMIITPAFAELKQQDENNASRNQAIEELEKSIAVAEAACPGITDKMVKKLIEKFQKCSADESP
T1 sequence (Q00532 whole entry, the tested form may be a part): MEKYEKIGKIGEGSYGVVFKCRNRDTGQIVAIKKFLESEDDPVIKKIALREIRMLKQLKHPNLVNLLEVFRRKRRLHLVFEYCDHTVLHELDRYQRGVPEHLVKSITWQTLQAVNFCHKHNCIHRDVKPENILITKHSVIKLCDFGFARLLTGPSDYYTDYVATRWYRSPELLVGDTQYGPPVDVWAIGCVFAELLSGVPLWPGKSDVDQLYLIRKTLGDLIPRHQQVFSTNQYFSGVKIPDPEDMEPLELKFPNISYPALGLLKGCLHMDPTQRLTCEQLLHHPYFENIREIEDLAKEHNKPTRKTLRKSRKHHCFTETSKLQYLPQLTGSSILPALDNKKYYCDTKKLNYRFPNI
T7 sequence (Q9Y6E0 whole entry, the tested form may be a part): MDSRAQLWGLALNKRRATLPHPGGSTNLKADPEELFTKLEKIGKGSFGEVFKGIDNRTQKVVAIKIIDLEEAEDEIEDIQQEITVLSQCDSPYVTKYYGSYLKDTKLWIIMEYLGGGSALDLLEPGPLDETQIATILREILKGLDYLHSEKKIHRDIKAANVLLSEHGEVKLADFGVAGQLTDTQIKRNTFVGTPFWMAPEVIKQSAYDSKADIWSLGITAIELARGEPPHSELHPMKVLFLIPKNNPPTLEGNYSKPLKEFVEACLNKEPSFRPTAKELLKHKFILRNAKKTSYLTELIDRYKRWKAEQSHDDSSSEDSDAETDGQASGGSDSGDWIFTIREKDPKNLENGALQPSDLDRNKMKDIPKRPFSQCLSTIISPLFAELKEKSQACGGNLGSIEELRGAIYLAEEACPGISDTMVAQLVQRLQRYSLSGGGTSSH
T2 sequence (P17948 27-1338): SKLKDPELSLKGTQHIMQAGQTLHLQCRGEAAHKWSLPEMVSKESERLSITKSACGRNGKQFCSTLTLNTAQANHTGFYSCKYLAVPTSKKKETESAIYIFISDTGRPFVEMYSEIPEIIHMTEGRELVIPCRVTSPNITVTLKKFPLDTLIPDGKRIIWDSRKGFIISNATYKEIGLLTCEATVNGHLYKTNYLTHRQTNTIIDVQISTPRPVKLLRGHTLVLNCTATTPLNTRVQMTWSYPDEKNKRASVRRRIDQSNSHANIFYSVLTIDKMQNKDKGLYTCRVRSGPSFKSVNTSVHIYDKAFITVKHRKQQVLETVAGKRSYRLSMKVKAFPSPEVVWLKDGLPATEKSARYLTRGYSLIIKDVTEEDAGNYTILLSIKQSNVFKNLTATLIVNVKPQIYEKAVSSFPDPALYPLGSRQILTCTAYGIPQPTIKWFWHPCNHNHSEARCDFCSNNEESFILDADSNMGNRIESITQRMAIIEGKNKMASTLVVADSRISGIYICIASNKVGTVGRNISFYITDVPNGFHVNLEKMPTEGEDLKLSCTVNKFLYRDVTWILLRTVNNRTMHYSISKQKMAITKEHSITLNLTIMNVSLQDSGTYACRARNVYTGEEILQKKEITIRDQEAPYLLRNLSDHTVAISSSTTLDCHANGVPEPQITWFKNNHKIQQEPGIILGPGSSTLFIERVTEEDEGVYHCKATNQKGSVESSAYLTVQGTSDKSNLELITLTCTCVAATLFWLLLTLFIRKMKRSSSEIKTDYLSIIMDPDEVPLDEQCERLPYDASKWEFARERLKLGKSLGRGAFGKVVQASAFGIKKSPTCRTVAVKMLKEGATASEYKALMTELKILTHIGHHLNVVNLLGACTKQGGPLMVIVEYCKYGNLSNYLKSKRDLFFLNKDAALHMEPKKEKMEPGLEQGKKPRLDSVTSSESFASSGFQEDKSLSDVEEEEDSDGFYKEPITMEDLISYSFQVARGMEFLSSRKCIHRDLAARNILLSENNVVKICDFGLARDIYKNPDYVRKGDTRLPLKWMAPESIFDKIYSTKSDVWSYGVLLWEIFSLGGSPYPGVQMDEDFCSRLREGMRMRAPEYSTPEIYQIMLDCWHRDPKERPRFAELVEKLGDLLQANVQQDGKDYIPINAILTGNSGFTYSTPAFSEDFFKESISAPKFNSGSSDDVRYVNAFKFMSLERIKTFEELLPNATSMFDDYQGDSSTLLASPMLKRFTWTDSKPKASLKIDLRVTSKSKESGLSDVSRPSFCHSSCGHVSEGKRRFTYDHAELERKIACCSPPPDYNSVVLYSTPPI
T4 sequence (Q00536 whole entry, the tested form may be a part): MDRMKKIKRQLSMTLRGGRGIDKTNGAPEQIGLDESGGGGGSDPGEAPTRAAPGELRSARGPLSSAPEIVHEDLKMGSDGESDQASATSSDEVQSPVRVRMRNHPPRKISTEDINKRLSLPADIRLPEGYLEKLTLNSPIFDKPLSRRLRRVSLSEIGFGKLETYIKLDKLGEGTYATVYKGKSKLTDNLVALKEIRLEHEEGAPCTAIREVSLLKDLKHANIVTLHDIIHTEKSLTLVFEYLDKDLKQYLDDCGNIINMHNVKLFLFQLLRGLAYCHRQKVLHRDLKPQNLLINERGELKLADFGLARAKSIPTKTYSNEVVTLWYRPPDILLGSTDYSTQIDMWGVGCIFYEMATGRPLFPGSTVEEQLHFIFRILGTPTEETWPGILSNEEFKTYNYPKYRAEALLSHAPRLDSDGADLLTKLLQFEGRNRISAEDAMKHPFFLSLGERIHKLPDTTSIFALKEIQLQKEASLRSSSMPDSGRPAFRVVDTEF
T6 sequence (Q8TDX7 whole entry, the tested form may be a part): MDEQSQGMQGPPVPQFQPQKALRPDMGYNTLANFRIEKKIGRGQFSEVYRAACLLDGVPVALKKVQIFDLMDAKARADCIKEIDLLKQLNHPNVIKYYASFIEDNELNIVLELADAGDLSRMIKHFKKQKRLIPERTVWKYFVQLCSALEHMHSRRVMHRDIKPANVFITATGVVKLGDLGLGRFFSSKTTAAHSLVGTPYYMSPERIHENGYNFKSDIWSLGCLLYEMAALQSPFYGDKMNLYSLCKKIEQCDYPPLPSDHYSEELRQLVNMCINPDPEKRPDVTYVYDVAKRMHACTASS

dTm [1] | dTm [2] | dTm [3] | dTm [4] | dTm [5] | dTm [6] | dTm [7] | dTm [8] | dTm [9] | dTm [10] | dTm [11] | SMILES
1.46 K | 4.10 K | 0.38 K | 3.77 K | 1.66 K | 0.20 K | 3.82 K | 4.47 K | -0.18 K | 0.32 K | 2.44 K | Cc1cc(F)ccc1NC(=O)C1(C(=O)Nc2cccc(-c3c[nH]c4ncnc(N5CCOCC5)c34)c2)CC1 [Compound 24]
10.84 K | 12.63 K | -10.48 K | 16.54 K | -0.44 K | -0.81 K | 6.78 K | 8.44 K | -0.40 K | 2.21 K | 3.56 K | Cc1ccc(-n2nc(C(C)(C)C)cc2NC(=O)Nc2cccc(-c3c[nH]c4ncnc(N5CCOCC5)c34)c2)cc1 [Compound 29]
1.69 K | 1.86 K | -0.79 K | -0.86 K | -3.69 K | 0.26 K | 0.83 K | 0.00 K | 1.32 K | 1.31 K | 1.80 K | O=C(Nc1cccc(-c2c[nH]c3ncnc(N4CCOCC4)c23)c1)C1(C(=O)Nc2cc(Br)c(F)cc2F)CC1 [Compound 25]
5.56 K | 7.62 K | -9.46 K | 5.50 K | -1.71 K | -0.91 K | 3.03 K | 4.59 K | -0.29 K | -1.76 K | -1.15 K | CC(=O)N1CCN(c2nc(Cl)nc3[nH]cc(-c4cccc(NC(=O)Nc5cc(C(C)(C)C)nn5-c5ccc(C)cc5)c4)c23)CC1 [Compound 31]
1.85 K | 2.22 K | 0.09 K | -1.22 K | -4.02 K | -0.33 K | 3.50 K | 0.00 K | 1.25 K | -0.35 K | 1.39 K | O=C(Nc1cccc(-c2c[nH]c3ncnc(N4CCOCC4)c23)c1)C1(C(=O)Nc2ccc(F)c(Br)c2F)CC1 [Compound 26]
0.44 K | -0.32 K | -0.93 K | -0.043 K | -1.77 K | -0.25 K | -2.45 K | -0.52 K | 0.41 K | -0.17 K | -1.65 K | COc1cc(S(C)(=O)=O)ccc1Nc1nc(N(C)C)c2c(Cl)c[nH]c2n1 [Compound 37]

The remaining lines, values behind:

SMILES | dTm [1] | dTm [2] | dTm [3] | dTm [4] | dTm [5] | dTm [6] | dTm [7] | dTm [8] | dTm [9] | dTm [10] | dTm [11]
CCSc1nc(NC)c2c(-c3cccc(NC(=O)Nc4cc(C(C)(C)C)nn4-c4ccc(C)cc4)c3)c[nH]c2n1 [Compound 32] | 9.64 K | 1.15 K | -4.54 K | 3.77 K | 0.87 K | -0.18 K | -1.49 K | 0.80 K | 0.32 K | -0.26 K | -2.75 K
O=C(Nc1ccc(F)cc1)C1(C(=O)Nc2cccc(-c3c[nH]c4ncnc(N5CCOCC5)c34)c2)CC1 [Compound 2] | 2.59 K | 3.90 K | -0.03 K | 5.80 K | 0.52 K | -0.93 K | 7.19 K | 5.05 K | 0.07 K | 0.39 K | 5.41 K
COc1cc(NC(=O)C2(C(=O)Nc3cccc(-c4c[nH]c5ncnc(N6CCOCC6)c45)c3)CC2)ccc1F [Compound 21] | 3.09 K | 4.43 K | -0.18 K | 6.37 K | 1.38 K | 0.39 K | 6.57 K | 3.89 K | -0.00539 K | 0.38 K | 6.10 K
CC(C)(C)c1cccc(NC(=O)C2(C(=O)Nc3cccc(-c4c[nH]c5ncnc(N6CCOCC6)c45)c3)CC2)c1 [Compound 22] | 4.95 K | 2.44 K | -3.46 K | 4.90 K | 0.62 K | 0.18 K | 0.95 K | 5.49 K | 0.84 K | 1.67 K | 4.41 K
O=C(Nc1cccc(-c2c[nH]c3ncnc(N4CCOCC4)c23)c1)c1cccn(-c2ccc(F)cc2)c1=O [Compound 4] | 5.10 K | 4.33 K | 2.76 K | 7.66 K | 0.47 K | -0.10 K | 3.28 K | 7.31 K | -0.31 K | 1.71 K | 1.45 K
CCc1ccc(NC(=O)C2(C(=O)Nc3cccc(-c4c[nH]c5ncnc(N6CCOCC6)c45)c3)CC2)cc1 [Compound 15] | 2.19 K | 0.00 K | -8.07 K | 9.05 K | 2.27 K | -0.42 K | 2.23 K | 5.52 K | 0.37 K | 0.11 K | 2.78 K
O=C(Nc1cccc(-c2c[nH]c3ncnc(N4CCOCC4)c23)c1)C1(C(=O)Nc2ccc(F)cc2F)CC1 [Compound 23] | 1.97 K | 3.92 K | 0.12 K | 4.13 K | 1.54 K | 0.03 K | 5.25 K | 4.75 K | 0.16 K | 0.22 K | 3.92 K
